Test results taken from patent US7799913B2, “Carbonylbenzoxazine compounds for enhancing glutamatergic synaptic responses” (Cortex Pharmaceuticals, Inc., priority 2001, dated 2010).

What was measured:
[1] = eight-arm radial maze task for cognition/memory enhancement; assay type: in vivo
Source text: This task has been described previously (Staubli et al., PNAS 91:777-781 (1994)) and Lynch and Rogers, PCT Pubn. No. WO 94/02475).
This test has been described previously by Staubli et al., PNAS 91:777-781 (1994) and Lynch and Rogers, U.S. Pat. No. 5,747,492.

AMPA receptors = assay: field EPSP amplitude in field CA1 of rat hippocampal slice; assay type: cell-based; conditions: for AMP: concentration of modulator that increases the amplitude of the fEPSP by 10%: rat hippocampal slice
Source text: The field EPSP, (excitatory post-synaptic potential) recorded in field CA1 after stimulation of CA3 axons is known to be mediated by AMPA receptors, which are present in the synapses (Kessler et al., Brain Res. 560: 337-341 (1991)). Drugs that selectively block the receptor selectively block the field EPSP (Muller et al., Science, supra). […] These effects are mirrored in the field EPSP (see, for example, Staubli et al., Psychobiology, supra; Xiao et al., Hippocampus, supra; Staubli et al., Hippocampus 2: 4958 (1992)).
To obtain the data shown in Table I, a bipolar nichrome stimulating electrode was positioned in the dendritic layer (stratum radiatum) of the hippocampal subfield CA1 close to the border of subfield CA3, as described in Example 64. Current pulses (0.1 msec) through the stimulating electrode activate a population of the Schaffer-commissural (SC) fibers, which arise from neurons in the subdivision CA3 and terminate in synapses on the dendrites of CA1 neurons. Activation of these synapses causes them to release the transmitter glutamate. Glutamate binds to post-synaptic AMPA receptors, which then transiently open an associated ion channel and permit a sodium current to enter the postsynaptic cell. This current results in a voltage in the extracellular space (the field EPSP), which is recorded by a high impedance recording electrode positioned in the middle of the stratum radiatum of CA1.
The intensity of the stimulation current was adjusted to produce half-maximal EPSPs (typically about 1.5-2.0 mV). Paired stimulation pulses were given every 40 sec with an interpulse interval of 200 msec, as described further in Example 64.
Hippocampal slices were maintained in a recording chamber continuously perfused with artificial cerebrospinal fluid (ACSF). During 15-30 minute intervals, the perfusion medium was switched to one containing various concentrations of the test compounds. Responses collected immediately before and at the end of drug perfusion were superimposed in order to calculate the percent increase in EPSP amplitude.
(§1) The physiological effects of invention compounds were tested in vitro on primary cultures of rat cortical neurons as described by Hamill, O P, et al. in Pflügers Arch 391: 85-100 (1981) or on slices of rat hippocampus according to the following procedure. Excitatory responses (field EPSPs) were measured in hippocampal slices, which were maintained in a recording chamber continuously perfused with artificial cerebrospinal fluid (ACSF). During a 15-30 minute interval, the perfusion medium was switched to one containing various concentrations of the test compounds. Responses collected immediately before and at the end of drug perfusion were superimposed in order to calculate the percent increase in EPSP amplitude.
To conduct these tests, the hippocampus was removed from anesthetized, 2 month old Sprague-Dawley rats and in vitro slices (400 μm thick) were prepared and maintained in an interface chamber at 35° C. using conventional techniques [see, for example, Dunwiddie and Lynch, J. Physiol. 276: 353-367 (1978)]. The chamber was constantly perfused at 0.5 mL/min with ACSF containing (in mM): NaCl 124, KCl 3, KH2PO4 1.25, MgSO4 2.5, CaCl2 3.4, NaHCO3 26, glucose 10 and L-ascorbate 2. A bipolar nichrome stimulating electrode was positioned in the dendritic layer (stratum radiatum) of the hippocampal subfield CA1 close to the border of subfield CA3.
Current pulses (0.1 msec) through the stimulating electrode activate a population of the Schaffer-commissural (SC) fibers, which arise from neurons in the subdivision CA3 and terminate in synapses on the dendrites of CA1 neurons. Activation of these synapses causes them to release the transmitter glutamate. Glutamate binds to the post-synaptic AMPA receptors, which then transiently open an associated ion channel and permit a sodium current to enter the postsynaptic cell. […]

AMPA receptor = assay: steady-state current induced by glutamate in cortical neurons in primary culture; assay type: cell-based, rat; conditions: for EC2X: concentration of modulator required to double the steady state current: 300 μM glutamate on cultured neurons
Procedure: as §1

In the case of `O=C1c2cc3c(cc2OC2CCCN12)C(=O)N1CCCC1O3` [Example 1, (R,S), (R,S)-3aH,9aH-pyrrolidino[2,1-b]pyrrolidino[2″,1″-2′,3′](1,3-oxazino)[5′,6′-2,1]benzo[4,5-e]1,3-oxazaperhydroine-6,12-dione], the “potency relative to CX516 (times more potent)” value ([1]; eight-arm radial maze MEDC) is reported as 250.
In the case of `O=C(c1ccc2nccnc2c1)N1CCCCC1` [CX516, 1-(quinoxaline-6-ylcarbonyl)piperidine, reference compound], the “Amp: concentration of compound that causes a 10% increase in the amplitude of the field EPSP” value (AMPA receptors; field CA1 of rat hippocampal slice, estimated by interpolation or extrapolation) is reported as 80 µM, the “AMP: concentration of modulator that increases the amplitude of the fEPSP by 10%” value (AMPA receptors) is reported as 80 µM and the “EC2X: concentration of modulator required to double the steady state current” value (AMPA receptor) is reported as 830 µM. For the same molecule, the “EC2x: concentration of compound that causes at least a doubling of the steady-state current” value (AMPA receptor; cortical neurons in primary culture, 300 μM glutamate) was 830 µM and the “MEDC: Minimum Effective Dose that produces a statistically significant improvement in behavior” value ([1]; eight-arm radial maze task) was 12.5 mg/kg.
For `CN1COc2cc3c(cc2C1=O)OC1CCCN1C3=O` (racemic) [Example 22, (R,S)-3-methyl-2H,6aH-pyrrolidino[2″,1″-3′,2′]1,3-oxazino[5′,6′-4,5]benzo[e]1,3-oxazaperhydroine-4,10-dione], the “AMP: concentration of modulator that increases the amplitude of the fEPSP by 10%” value (AMPA receptors) was 10 µM, the “EC2X: concentration of modulator required to double the steady state current” value (AMPA receptor) was 0.2 µM and the melting point was 195 to 196 °C.
